# Like-named read-outs stand apart in the source and are kept apart here.
# What was measured:
# [1] = test system: Klebsiella pneumonia AG215; assay: MIC by broth microdilution, Klebsiella pneumonia; format: cell-based; details: strain AG215 Klebsiella pneumonia
# [2] = test system: N. gonorrhoeae; assay: Disk diffusion, N. gonorrhoeae; format: cell-based
# [3] = test system: E coli carrying specific resistance determinants; assay: MIC by broth microdilution, E coli carrying specific resistance determinants; format: cell-based; details: for MIC: Escherichia coli
# [4] = test system: Acinetobacter baumannii pittii AG225; assay: MIC by broth microdilution, Acinetobacter baumannii; format: cell-based; details: strain AG225 Acinetobacter baumannii pittii
# [5] = test system: Enterobacter cloacae AG290; assay: MIC by broth microdilution, Enterobacter cloacae; format: cell-based; details: strain AG290 Enterobacter cloacae
# [6] = test system: M. smegmatis SZ380; assay: MIC by broth microdilution, M. smegmatis
# [7] = test system: E coli wild type; assay: MIC by broth microdilution, wild type E coli; format: cell-based; details: for MIC: Escherichia coli
# [8] = test system: P aeruginosa; assay: MIC by broth microdilution, P aeruginosa isolates; format: cell-based, Pseudomonas aeruginosa; details: strain AG220 Pseudomonas aeruginosa ATCC27853
# [9] = test system: MRSA; assay: MIC by broth microdilution, MRSA isolates; format: cell-based; details: Table 1 (Example 2)
structure (smiles),measurement,setting,value
CCC[C@@H]1C(CO)O[C@H](O[C@@H]2C(N)C[C@@H](N)C(O)[C@H]2O[C@@H]2O[C@H](CO)[C@H](O[C@H]3OC(CN)[C@@H](O)C(O)C3N)C2O)[C@@H](N)C1O (stereo partly shown) [Compound 079],MIC,"[1]; Klebsiella pneumoniae, read-out: MIC AG215 K. pneumon",0.5 µg/mL
same,zone of inhibition at 25 nmol/disc,[2]; Neisseria gonorrhoeae,16 mm
same,MIC,[3]; read-out: MIC AG037 E. coli APH(3′)-III,> 64 µg/mL
same,MIC,[3]; read-out: MIC AG163 E. coli APH(3′)-I,> 64 µg/mL
same,MIC,[3]; read-out: MIC AG166 E. coli APH(3′)-II,1 to 2 µg/mL
same,MIC,[3]; read-out: MIC pH421 E. coli APH(3′)-I,> 32 µg/mL
same,MIC,[3]; read-out: MIC pH422 E. coli APH(3′)-II,4 µg/mL
same,MIC,[3]; read-out: MIC pH423 E. coli APH(3′)-VI,1 µg/mL
same,MIC,[4],1 to 2 µg/mL
same,MIC,[5]; read-out: MIC AG290 E. cloacae,0.5 µg/mL
same,MIC,"[6]; Mycolicibacterium smegmatis, SZ380, read-out: MIC SZ380 M. smegmatis, strain SZ380 Mycobacterium smegmatis",0.5 µg/mL
same,MIC,"[7]; ATCC25922, strain AG212 E. coli (ATCC25922), read-out: MIC AG212 E. coli",1 µg/mL
same,MIC,"[7]; clinical isolate AG160 WT, Table 2 (Example 4), read-out: MIC AG160 E. coli WT",1 µg/mL
same,MIC,"[7]; engineered strain pH430 WT, Table 2 (Example 4), read-out: MIC pH430 E. coli WT",0.5 µg/mL
same,MIC,[8]; read-out: MIC AG220 P. aerugin,4 µg/mL
"C[C@@H](O)[C@H]1O[C@H](O[C@H]2[C@H](O[C@@H]3O[C@H](CO)[C@@H](O[C@H]4O[C@@H](CN)[C@@H](O)[C@H](O)[C@H]4N)[C@H]3O)[C@@H](O)[C@H](N)C[C@@H]2N)[C@H](N)[C@@H](O)[C@@H]1O [Compound 155, 6′(R)-6′-C-Methylparomomycin]",MIC AG215 K. pneumon,[1],2 µg/mL
same,Disk diffusion 25 nmol N. gonorrhoeae,[2]; 25 nmol,8 mm
same,MIC50 MRSA AG38,[9]; strain AG38,8 µg/mL
same,MIC50 MRSA AG39,[9]; strain AG39,>64 µg/mL
same,MIC50 MRSA AG42,[9]; strain AG42,>64 µg/mL
same,MIC50 MRSA AG44,[9]; strain AG44,4 µg/mL
same,"MIC50 E coli AG036 ANT(4′,4″)","[3]; AG036 ANT(4′,4″), Table 2B (Example 2)",>32 µg/mL
same,MIC50 E coli AG037 APH(3′)-III,"[3]; AG037 APH(3′)-III, Table 2B (Example 2)",>32 µg/mL
same,MIC50 E coli AG103 armA,"[3]; AG103 armA, Table 2B (Example 2)",8 µg/mL
same,MIC50 E coli pH414 AAC(6′)-I,"[3]; pH414 AAC(6′)-I, Table 2B (Example 2)",2 μg/ml
same,MIC50 E coli pH415 AAC(6′)-II,"[3]; pH415 AAC(6′)-II, Table 2B (Example 2)",2 μg/ml
same,MIC50 E coli pH421 APH(3′)-I,"[3]; pH421 APH(3′)-I, Table 2B (Example 2)",>32 μg/ml
same,MIC50 E coli pH422 APH(3′)-II,"[3]; pH422 APH(3′)-II, Table 2B (Example 2)",>32 μg/ml
same,MIC50 E coli pH423 APH(3)-VI,"[3]; pH423 APH(3)-VI, Table 2B (Example 2)",>32 μg/ml
same,MIC50 E coli pH432 ANT(4′),"[3]; pH432 ANT(4′), Table 2B (Example 2)",2 μg/ml
same,MIC AG225 A. baumannii,[4],4 µg/mL
same,MIC AG290 E. cloacae,[5],2 to 4 µg/mL
same,MIC SZ380 M. smegmatis,[6]; strain SZ380 Mycobacterium smegmatis,4 µg/mL
same,MIC50 E coli BM13 (AG06) wt,"[7]; BM13 (AG06) wt, Table 2A (Example 2)",2 µg/mL
same,MIC50 E coli pH430 WT,"[7]; pH430 WT, Table 2B (Example 2)",1-2 μg/ml
same,MIC50 E coli AG01,"[7]; strain AG01, Table 1 (Example 2)",8 to 16 µg/mL
same,MIC50 E coli AG03,"[7]; strain AG03, Table 1 (Example 2)",8 to 16 µg/mL
same,MIC50 E coli AG55,"[7]; strain AG55, Table 1 (Example 2)",8 to 16 µg/mL
same,MIC AG212 E. coli,[7]; strain AG212 E. coli (ATCC25922),4 µg/mL
same,MIC AG220 P. aerugin,[8],>32 µg/mL

# From patent US11466044B2 (WAYNE STATE UNIVERSITY, priority 2017, dated 2022)
